From paper PMC6271609, “Secondary Metabolites from Vietnamese Marine Invertebrates with Activity against Trypanosoma brucei and T. cruzi” (Molecules, 2014)
Entries after “also recorded” stand apart in the source; their conditions may differ. Like-named read-outs stand apart in the source and are kept apart here.

What was measured:
[1] = system: T. brucei strain 427 bloodstream forms; test: Anti-trypanosomal activity on T. brucei, resazurin dose response; type: cell-based, Trypanosoma brucei; details: for SI (Selectivity index): relative to HEK293T and HepG2 cells vs T. brucei
Experimental: T. brucei strain 427 bloodstream forms were cultivated at 37 °C with 5% CO2 in HMI-9 medium supplemented with 10% FBS. Cultivated parasites (2,500) were seeded in 384 well plates with the natural compounds and incubated for 3 days. After the incubation, the parasites were exposed to 120 µM of resazurin sodium salt (10.0 µL of a 720 µM solution in water) for 5 h. Then, the parasites were fixed with 4% PFA and the assay plates were read by Victor 3™ (PerkinElmer, Waltham, MA, USA) at 530 nmEx/590 nmEm. Pentamidine was used as a reference drug and DMSO 0.5% was used as a drug-negative control.
(§1) The acquired images from the high content intracellular T. cruzi screening were subjected to in-house software to quantify cell numbers, parasite numbers, and infection ratio as previously described. Each compound’s activity was normalized based on values of drug positive and negative control (120 nM of pentamidine for T. brucei and T. cruzi assays, 83.0 µM of chlorpromazine for cytotoxicity, and DMSO as 0% drug activity for negative control). Dose response curves were fitted by sigmoidal dose-response with variable slope, equation described as Y = Bottom + (Top − Bottom)/(1 + 10^(LogEC5 − X) − HillSlpe) using GraphPad Prism 6 Software (GraphPad Software, Suite 230 La Jolla, CA, USA).

[2] = Cytotoxicity assay, resazurin, HEK293T; type: cell-based, human; details: human
Experimental: (§2) HEK293T and HepG2 cells were cultured at 37 °C with 5% CO2 in Dulbecco’s modified eagle medium containing 10% FBS. Both cell types were plated individually in 384 well plates for testing the natural compounds at 3-fold dilution from 100 µM in 10-points concentration and incubated for 3 days. To determine viability, 10.0 µL of a 280 µM solution of resazurin sodium salt in water was added to the cells in the assay plate for at least 5 h (final concentration, 40.0 µM of resazurin) and resazurin reduction was measured with a Victor 3^TM fluorimeter (PerkinElmer) at 530 nmEx/590 nmEm.
as §1

[3] = Cytotoxicity assay, resazurin, HepG2; type: cell-based, human; details: human
Experimental: as §2, §1

U2OS human cell = test: Host cell number in the T. cruzi high content image assay; type: cell-based; details: 50.0 μM, 48 h, U2OS infected with T. cruzi
Experimental: (§3) The assay for activity against T. cruzi Y strain was performed as previously described. Briefly, T. cruzi parasites were maintained in form of Tissue Culture Trypomastigote (TCT) by circulation in LLC-MK2 cell line (CCL-7, ATTC, Manassas, VA, USA). Seven days after the infection, the supernatant containing TCT parasites was collected and used to reinfect new cultures of LLC-MK2. The U2OS human cell (HTB-96, ATCC), cultivated in DMEM-high glucose media supplemented with 10% heat inactivated FBS, was used for the in vitro assay preparation. The cells were infected with the TCT form of T. cruzi. A homogeneous mixture of parasites and cells in DMEM-low glucose media, supplemented with 2% heat inactivated FBS, and was seeded into 384-well plates at 50.0 µL/well. The test compounds (final concentration of 50.0 µM) were added in 10.0 µL of 6% DMSO (final concentration, 1% DMSO) and the cells were incubated for 48 h at 37 °C, 5% CO2. After the incubation, the cells and parasites were fixed with 4% PFA and stained with 5.0 µM Draq5. Fluorescent images were acquired from each assay well using an Operetta microscope (Perkin Elmer).
The acquired images from the high content intracellular T. cruzi screening were subjected to in-house software to quantify cell numbers, parasite numbers, and infection ratio as previously described. […]

[4] = system: intracellular amastigotes of T. cruzi Y strain; test: Anti-trypanosomal activity on intracellular T. cruzi Y strain, high content image assay; type: cell-based, Trypanosoma cruzi; details: for activity against intracellular T. cruzi (in words): 50.0 µM; for decrease of parasite survival / reduction of parasites growth compared to the DMSO control: 50.0 μM, 48 h, U2OS host cells
Experimental: as §3, §1

HEK293T cells = test: Cytotoxicity assay, resazurin, HEK293T; type: cell-based, human; details: pure compounds up to 100 µM
Experimental: as §2, §1

HepG2 cells = test: Cytotoxicity assay, resazurin, HepG2; type: cell-based, human; details: pure compounds up to 100 µM
Experimental: as §2, §1

T. brucei rhodesiense = system: T. brucei rhodesiense; design: method as in PMID 21157686; details: cited from earlier work
Plasmodium falciparum = system: Plasmodium falciparum; design: method as in PMID 21157686; details: cited from earlier work
[5] = Trypanosoma brucei, 72 h, bloodstream forms, 3 days incubation, resazurin, read-out: T. brucei EC50 Values
[6] = HEK293T cells, HEK293T, 3 days, highest concentration 100 µM, read-out: Cytotoxicity CC50 Values HEK293T
[7] = HepG2 cells, HepG2, 3 days, highest concentration 100 µM, read-out: Cytotoxicity CC50 Values HepG2

For `CC(C)CCC[C@@H](C)[C@H]1CC[C@H]2C3=C(CC[C@]12C)[C@@]1(C)CC[C@H](O)C[C@]1(O)[C@H](O)[C@H]3O` [Compound 4, cholest-8-ene-3β,5α,6β,7α-tetraol], the EC50 [1, 5] was 14.6 ± 1.36 µM, the “SI (Selectivity index)” value [1] was over 6.8 and the CC50 at 3 days [2] was over 100 µM. For the same compound, the CC50 at 3 days [3] was over 100 µM.

With `CC(C)CCC[C@@H](C)[C@H]1CCC2=C3[C@H](O)C[C@H]4C[C@@H](O)CC[C@]4(C)[C@H]3CC[C@@]21C` [Compound 5, 5α-cholest-8(14)-ene-3β,7α-diol] the “reduction of the host cells” value (U2OS human cell) was “not significantly reduced”, the “activity against intracellular T. cruzi (in words)” value [4] was “significant activity; also recorded: significant inhibitory effects; also recorded: active” and the “decrease of parasite survival / reduction of parasites growth compared to the DMSO control” value [4] was 97.1%. For the same compound, the EC50 ([1]; Trypanosoma brucei, 72 h, read-out: T. brucei EC50 Values) was over 30 µM, the “activity against T. brucei (in words)” value ([1]; bloodstream forms) was “inactive” and the CC50 at 3 days ([2]; HEK293T, 3 days, highest concentration 100 µM, read-out: Cytotoxicity CC50 Values HEK293T) was over 100 µM. The “cytotoxicity on HEK293T (in words)” value (HEK293T cells) was “did not show any cytotoxicity”, the CC50 at 3 days ([3]; HepG2, 3 days, highest concentration 100 µM, read-out: Cytotoxicity CC50 Values HepG2) was over 100 µM and the “cytotoxicity on HepG2 (in words)” value (HepG2 cells) was “did not show any cytotoxicity”.

For `C/C1=C\CC/C(C)=C/C[C@](O)(C(C)C)CC/C(C)=C/CC1` [serratol], the “activity against T. brucei rhodesiense (in words)” value (T. brucei rhodesiense) is listed as “active” and the “activity against Plasmodium falciparum (in words)” value (Plasmodium falciparum) is listed as “active”.

For `CC(C)[C@@H](C)CC[C@@H](C)[C@H]1CC[C@H]2[C@@H]3CCC4=CC(=O)CC[C@]4(C)[C@H]3CC[C@]12C` [Compound 2, (24S)-ergost-4-ene-3-one], the EC50 [1, 5] was 5.47 ± 0.27 µM, the “SI (Selectivity index)” value [1] was over 18.3 and the CC50 at 3 days [2, 6] was over 100 µM. The CC50 at 3 days [3, 7] was over 100 µM.

Compound `CN(C)CCCN1c2ccccc2Sc2ccc(Cl)cc21` [Chlorpromazine, reference compound] has a CC50 at 3 days [2, 6] of 19.9 ± 3.48 µM and a CC50 at 3 days [3, 7] of 16.5 ± 0.45 µM.

With `CC(C)CCC[C@@H](C)[C@H]1CC[C@@H]2[C@]1(C)CC[C@@H]1[C@@]3(C)CC[C@H](O)C[C@@H]3[C@@H](C=O)[C@]12O` [Compound 3, astropectenol A] the EC50 [1, 5] was 1.17 ± 0.14 µM, the EC50 ([1]; bloodstream forms, 3 days incubation, resazurin, read-out: T. brucei EC50 Values) was 1.57 ± 0.14 µM and the “SI (Selectivity index)” value [1] was over 63.7. The CC50 at 3 days [2, 6] was over 100 µM and the CC50 at 3 days [3, 7] was over 100 µM.

For `C=C1CO[C@H]2/C=C(\C)CC[C@@H]3O[C@]3(C)CC/C=C(\C)CC[C@@]12O` [Compound 1, laevigatol B], the “reduction of the host cells” value (U2OS human cell) was 33%, the “activity against intracellular T. cruzi (in words)” value [4] was “significant activity; also recorded: significant inhibitory effects; also recorded: active” and the “decrease of parasite survival / reduction of parasites growth compared to the DMSO control” value [4] was 84.8%. For the same compound, the EC50 [1, 5] was 5.34 ± 0.47 µM, the EC50 ([1]; Trypanosoma brucei, bloodstream forms, resazurin, read-out: T. brucei EC50) was 1.69 ± 0.12 µg/mL and the “SI (Selectivity index)” value [1] was over 18.7. For the same compound, the CC50 at 3 days [2, 6] was over 100 µM, the “cytotoxicity on HEK293T (in words)” value (HEK293T cells) was “did not display cytotoxicity” and the CC50 at 3 days [3, 7] was over 100 µM. The “cytotoxicity on HepG2 (in words)” value (HepG2 cells) was “did not display cytotoxicity”.

For `N=C(N)c1ccc(OCCCCCOc2ccc(C(=N)N)cc2)cc1` [Pentamidine, reference compound], the EC50 [1, 5] was 0.015 ± 0.003 µM, the “SI (Selectivity index)” value [1] was under 26.7 and the “SI (Selectivity index)” value ([1]; listed as pentamidine) was 26.7. For the same compound, the CC50 at 3 days [2, 6] was under 0.4 µM and the CC50 at 3 days [3, 7] was under 0.4 µM.
